Measurements reported in US11666562B2, “Ilaprazole for inhibiting the release of enveloped viruses from cells” (Northwestern University, priority 2020, dated 2023).
Like-named read-outs stand apart in the source and are kept apart here.

Legend:
[1] = test system: HSV-2; test: Transmission electron microscopy of HSV-2 infected Vero cells, location of virus particles; format: cell-based, Herpes simplex virus-2(A/B-G); conditions: 24 h, 80 cells
Experimental: Cellular location of tenatoprazole inhibition. We next imaged herpesvirus infected-Vero cells using transmission electron microscopy to determine the site of inhibition of release of virus and whether it was similar to observations of HIV-1 release from 293T cells. Vero cells grown on glass cover slips were infected with HSV-2 at MOI of 0.1 pfu/cell for 2 h and then treated for 24 h with 105 μM tenatoprazole or vehicle control. In the no drug control, virus particles were in both the nucleus and cytoplasm near the cell surface (FIG. 2A). In the tenatoprazole-treated cells the cytosol of all of the intact cells was largely devoid of virus particles (FIG. 2B). Instead, we observed large pockets of granular material accumulated in the nucleus and immature virus particles inside the nucleus and lining the inside of the nuclear membrane (inset, B).
We next carried out a transmission electron microscopic examination of cells infected with HSV-2 at a MOI 0.1 in the presence and absence of 18 μM ilaprazole to determine if this drug causes the accumulation of virus particles in the nucleus of cells similar to tenatoprazole. Without drug, we observe particles in the cytoplasm and in the nucleus (FIGS. 4A & B), in the presence of drug little or no viral particles are found in the cytoplasm (FIGS. 4C & D). In both heavily infected cells (FIGS. 4A & C) and mildly infected cells (FIGS. 4B & D), treatment lead to particles being detected in the nucleus and arrayed along the nuclear membrane but lacking in the cytosol. […] Similar results were obtained with HSV-1 infected cells (FIG. 4E-H). Particles are seen in both the cytoplasm and nucleus in the absence of drug and just in the nucleus in the presence of drug. […] The lower total infectious virus detected in Table 3 (FIG. 7) is consistent with blockage of the virus passaging out of the nucleus into the cytoplasm where membranes are exchanged and virus becomes infectious.
Transmission electron Microscopy. Vero cells on glass cover slips were infected with HSV-2 at a MOI of 0.1 for two hours. Then 105 μM of tenatoprazole or 18 μM Ilaprazole was added and cells incubated for 24 hours. Tissue samples were fixed in 0.1 M sodium cacodylate buffer pH 7.3 containing 2% paraformaldehyde and 2.5% glutaraldehyde and post-fixed with 2% osmium tetroxide in unbuffered aqueous solution. The samples were rinsed with distilled water, en bloc stained with 3% uranyl acetate, rinsed with distilled water, dehydrated in ascending grades of ethanol, transitioned with propylene oxide, embedded in the resin mixture of Embed 812 kit and cured in a 60° C. oven. Samples were sectioned on a Leica Ultracut UC6 ultramicrotome. 1 μm thick sections were collected and stained with Toluidine Blue O and 70 nm sections were collected on 200 mesh copper grids; thin sections were stained with uranyl acetate and Reynolds lead citrate. Transmission electron microscopy (TEM) was performed on a FEI Tecnai Spirit G2.

[2] = test system: Vero cells; test: Vero cell viability/toxicity (96 AQueous One Solution / WST-1); format: cell-based
Experimental: (§1) Drug potency and cell toxicity. EC50 calculations were determined by using AAT Bioquest's EC50 calculator. Cell toxicity at different concentrations of drugs as indicated was determine using the Cell Proliferation Reagent WST-1 (Roche Diagnostics) or cellular 96® Aqueous One Reagent viability reagent according to manufacturer's instructions. For 293T cells, the concentration of DMSO was 0.2% or less and assays were carried out with DMEM with 10% serum. Cell toxicity experiments were repeated twice.

[3] = test system: HSV-2; test: Release of HSV-2 from infected Vero cells, plaque assay; format: cell-based, Herpes simplex virus-2(A/B-G); conditions: for EC50: Human alphaherpesvirus 2, MOI 0.1, 24 h, read-out: EC50, inhibition of HSV-2 release; for Total infectious virus (released plus inside cells), HSV-2: 24 h, freeze/thaw lysate
Experimental: (§2) We infected Vero cells with HSV-1 and HSV-2 for two hours at a multiplicity of infection (MOI in pfu\cell) of 0.1 to assay the antiviral activity of tenatoprazole. Following infection, cells were treated with different concentrations of tenatoprazole. After 24 or 48 h the media fractions were collected and released virus titers were determined by standard plaque assays (30). Tenatoprazole caused a 3-log drop of HSV-1 and 4-5 log drop of HSV-2 in released infectious virus from Vero cells at 24 hours after infection in a dose dependent manner (Table 1, shown in FIG. 5, columns 2 and 3) with calculated EC50's ranging from 48-80 μM. Total virus titer was also determined to differentiate between virus released into the media and infectious particles present in cell lysate. […] The concentrations of tenatoprazole that blocked virus release were nontoxic to Vero cells as determined by a 96® AQueous One Solution cell proliferation assay reagent (Table 1, shown in FIG. 5, column 7). Taken together, tenatoprazole inhibited levels of both released and infectious virus particles without affecting cell viability at effective concentrations.
To examine the effects of the compounds on the release of HSV-2 from Vero cells, we infected the cells with virus two hours prior to treatment with media containing different concentrations of compound. We incubated the cells for 24 or 48 hours and then collected the cell media fractions.
(§3) Herpesvirus infection of Vero cells. Vero cells (0.8×10^6 cells/well of a 6-well plate) were infected with HSV-1 or HSV-2 at a MOI of 0.1 pfu/cell in DMEM with 1% serum for two hours in the C02 incubator at 37° C. In one experiment looking at the effect of tenatoprazole on HSV-2 release from cells 24 and 48 h a MOI of 3 pfu/cell was used. The cell supernatants were aspirated and replaced with 1 ml (24 h) or 2 ml (48 h and 72 h) of DMEM with 1% serum with DMSO or different concentrations of drug (tenatoprazole, ilaprazole, or analogs) dissolved in DMSO. After 24 or 48 h incubation, the cell supernatant was collected and frozen at −80° C. Virus titer in the cell media fraction was determined by standard plaque assays using 10-fold serial dilutions of cell supernatants of Vero cells and incubated for 48 h after which cells were fixed and stained to count the plaques (22). For determination of total virus (extracellular+cytoplasmic), virus infected cells were incubated for 24 h with and without drug presence, then the plate of cells were subjected to 3 cycles of freeze/thawing (−80° C./37° C.) 30 min each prior to collecting the supernatant after centrifugation for measurement of total virus titer. Virus titer was measured by standard plaque assay as above.
as §1

[4] = test system: HSV-1; test: Release of HSV-1 from infected Vero cells, plaque assay; format: cell-based, Herpes simplex virus-1 (Kos strain); conditions: for EC50: Human alphaherpesvirus 1; for Duration of inhibition of HSV-1 release after a single application: data not shown
Experimental: as §2, §3, §1

[5] = Vero cells, 24 hours after infection, dose dependent
[6] = Vero cells, MOI 0.1, 24 h, read-out: EC50, inhibition of HSV-1 release

Row | SMILES | Average number of virus particles in the nucleus ([1]; HSV-2, 105 μM tenatoprazole) [particles] | Virus particles in the cytoplasm ([1]; HSV-2, 105 μM tenatoprazole) | Cell toxicity to Vero cells ([2]; at concentrations that block virus release, 24 h) | EC50 ([3]; Vero cells) [µM] | Total infectious virus (released plus inside cells), HSV-2 ([3]; Vero cells) | Drop in released infectious HSV-2 [3, 5] | Duration of inhibition of HSV-2 release after a single application ([3]; data not shown) | EC50 [4, 6] [µM] | Drop in released infectious HSV-1 [4, 5] [log] | Duration of inhibition of HSV-1 release after a single application [4] | Average number of virus particles in the nucleus ([1]; HSV-2, 18 μM ilaprazole) [particles] | Range of number of virus particles in the nucleus ([1]; HSV-2, 18 μM ilaprazole) | Virus particles in the cytoplasm ([1]; HSV-2, 18 μM ilaprazole) [particles] | Cell toxicity to Vero cells [2] | Anti-HSV-2 activity (release from Vero cells), in words ([3]; Table 2, 24 h) | EC50 ([4]; Vero cells, 72 h after a single application (Table 3A columns 2 & 4, HSV-1), read-out: 72 h EC50, inhibition of virus release) [µM] | Total infectious virus (released plus inside cells), HSV-1 ([4]; Vero cells, freeze/thaw lysate)
1 | COc1ccc2[nH]c([S+]([O-])Cc3ncc(C)c(OC)c3C)nc2n1 (stereo not drawn) [Tenatoprazole] | 31 | did not detect virus particles | nontoxic | 48 to 80 | reduced by tenatoprazole, but not as strongly as virus released into the media | 4-5 log | began to fall off after 48 h | 48 to 80 | 3 | began to fall off after 48 h |  |  |  |  |  |  | 
2 | COc1ccnc(C[S+]([O-])c2nc3ccc(-n4cccc4)cc3[nH]2)c1C (stereo not drawn) [Ilaprazole, 2-[(4-methoxy-3-methylpyridin-2-yl)methylsulfinyl]-6-pyrrol-1-yl-1H-benzimidazole] |  |  |  | 3 to 9 | significant drop in total virus |  |  | 3 to 9 |  | Significant inhibition was still observed at 4 and 5 days | 31 | 9-56 particles | 0 | did not observe cell toxicity | potent antiviral activity | 0.8 to 1.2 | significant drop in total virus
